What all share (type): cell-based
Series [1] is described as follows: Cytotoxicity in PHA-stimulated human PBM cells. The conditions noted are these: uninfected PHA-stimulated PBM cells.
The nature of the next series: in vitro. The conditions noted are these: human, CEM cells (T-lymphoblastoid cell line).
Another series relates to HIV-1LAI. Nature of the series: Anti-HIV activity against HIV-1LAI in human PBM cells. The following applies: HIV-1LAI in PBM cells.
Series [2] in a line: Cytotoxicity in Vero cells. The following applies: African green monkey, Vero cells (kidney).

These results are taken from article PMC7734618 (Bioorganic & medicinal chemistry, 2008).

In general, IC50 refers to the concentration at which inhibition is half-maximal. Higher therefore signals weaker potency.

Structures can show the parent of a compound that is named as a salt.

Take `CC(=O)OC[C@@H]1OC[C@H](n2cc(C)c(=O)[nH]c2=O)O1` [Compound 1, Dioxolane thymine-5′-O-acetic ester]: the 50% inhibitory concentration (IC50) at 4 days in series [1] was more than 100 µM.
Consider `CCCCC(=O)OC[C@@H]1OC[C@H](n2cc(C)c(=O)[nH]c2=O)O1` [Compound 2, Dioxolane thymine-5′-O-valeric ester], for which the IC50 at 4 days in series [1] is more than 100 µM. The molecule further gave an IC50 at 3 days in the series “in vitro” of more than 100 µM.
For `CCCCCCCC(=O)OC[C@@H]1OC[C@H](n2cc(C)c(=O)[nH]c2=O)O1` [Compound 3, Dioxolane thymine-5′-O-octanotic ester], the IC50 at 4 days in series [1] is more than 100 µM. The concentration for half-maximal inhibition (IC50) at 3 days in “in vitro” is more than 100 µM.
With `CCCCCCCCCCCC(=O)OC[C@@H]1OC[C@H](n2cc(C)c(=O)[nH]c2=O)O1` [Compound 4, Dioxolane thymine-5′-O-dodecanoic ester], the concentration for half-maximal inhibition (IC50) at 4 days in series [1] was more than 100 µM. This molecule displayed an IC50 at 3 days in “in vitro” of more than 100 µM.
In turn, `CCCCCCCCCCCCCCCC(=O)OC[C@@H]1OC[C@H](n2cc(C)c(=O)[nH]c2=O)O1` [Compound 5, Dioxolane thymine-5′-O-palmitic ester] yielded an IC50 at 4 days in series [1] of more than 100 µM. In addition, in the series “in vitro”, the IC50 at 3 days was more than 100 µM.
Molecule `Cc1cn([C@H]2CO[C@@H](COC(=O)C(C)(C)C)O2)c(=O)[nH]c1=O` [Compound 6, Dioxolane thymine-5′-O-pivalic ester] came in with an IC50 at 4 days in series [1] of more than 100 µM. This molecule had an IC50 at 3 days in the series “in vitro” of more than 100 µM.
Consider `Cc1cn([C@H]2CO[C@@H](COC(=O)C3CC3)O2)c(=O)[nH]c1=O` [Compound 7, Dioxolane thymine-5′-O-cyclopropanecarboxylic ester], for which, in series [1], the IC50 at 4 days is more than 100 µM. In addition, the half-inhibitory concentration (IC50) at 3 days in the series “in vitro” was more than 100 µM.
`Cc1cn([C@H]2CO[C@@H](COC(=O)C3CCCCC3)O2)c(=O)[nH]c1=O` [Compound 8, Dioxolane thymine-5′-O-cyclohexanecarboxylic ester] registered an IC50 at 4 days in series [1] of more than 100 µM. Further, the IC50 at 3 days in the series “in vitro” is more than 100 µM.
For `Cc1cn([C@H]2CO[C@@H](COCOC(=O)C(C)(C)C)O2)c(=O)[nH]c1=O` [Compound 9, Dioxolane thymine-5′-O-pivaloyloxymethyl ether], in the series with HIV-1LAI, the “Anti-HIV activity compared with parent drug DOT (in words)” value is listed as “slightly reduced antiviral activity”. The half-inhibitory concentration (IC50) at 4 days in series [1] is more than 100 µM. For the same molecule, the half-inhibitory concentration (IC50) at 3 days in “in vitro” was more than 100 µM.
In turn, `Cc1cn([C@H]2CO[C@@H](COC(=O)CN)O2)c(=O)[nH]c1=O` [Compound 11, Dioxolane thymine-5′-O-glycyl ester hydrochloride] had a concentration for half-maximal inhibition (IC50) at 4 days in series [1] of more than 100 µM. In “in vitro”, this molecule displayed an IC50 at 3 days of more than 100 µM.
For the molecule `Cc1cn([C@H]2CO[C@@H](COC(=O)[C@H](C)N)O2)c(=O)[nH]c1=O` [Compound 13, Dioxolane thymine-5′-O-l-alanyl ester hydrochloride], in series [1], the IC50 at 4 days is more than 100 µM. In the series “in vitro”, this molecule displayed an IC50 at 3 days of more than 100 µM.
Molecule `Cc1cn([C@H]2CO[C@@H](COC(=O)[C@@H](N)Cc3ccccc3)O2)c(=O)[nH]c1=O` [Compound 14, Dioxolane thymine-5′-O-l-phenylalanyl ester hydrochloride] showed an IC50 at 4 days in series [1] of more than 100 µM. The molecule also registered a half-inhibitory concentration (IC50) at 3 days in the series “in vitro” of more than 100 µM. The molecule also showed a half-maximal inhibitory concentration (IC50) at 2 days in series [2] of more than 100 µM.
Consider `Cc1cn([C@H]2CO[C@@H](COC(=O)[C@H](N)Cc3ccccc3)O2)c(=O)[nH]c1=O` [Compound 15, Dioxolane thymine-5′-O-d-phenylalanyl ester hydrochloride], for which the IC50 at 4 days in series [1] is more than 100 µM. This molecule came in with an IC50 at 3 days in “in vitro” of more than 100 µM. This molecule also showed an IC50 at 2 days in series [2] of more than 100 µM.
In series [1], `Cc1cn([C@H]2CO[C@@H](COC(=O)[C@@H](N)C(C)C)O2)c(=O)[nH]c1=O` [Compound 16, Dioxolane thymine-5′-O-l-valyl ester hydrochloride] gave a 50% inhibitory concentration (IC50) at 4 days of more than 100 µM. This molecule came in with an IC50 at 3 days in “in vitro” of more than 100 µM. For the same molecule, the half-inhibitory concentration (IC50) at 2 days in series [2] was more than 100 µM.
In turn, `Cc1cn([C@H]2CO[C@@H](COC(=O)[C@H](N)C(C)C)O2)c(=O)[nH]c1=O` [Compound 17, Dioxolane thymine-5′-O-d-valyl ester hydrochloride] showed an IC50 at 4 days in series [1] of more than 100 µM. This molecule also returned an IC50 at 3 days in the series “in vitro” of more than 100 µM. This molecule also gave an IC50 at 2 days in series [2] of more than 100 µM.
In the case of `Cc1cn([C@H]2CO[C@@H](COC(=O)[C@@H](N)CC(C)C)O2)c(=O)[nH]c1=O` [Compound 18, Dioxolane thymine-5′-O-l-leucinyl ester hydrochloride], the half-maximal inhibitory concentration (IC50) at 4 days in series [1] was more than 100 µM. The molecule also came in with a half-inhibitory concentration (IC50) at 3 days in “in vitro” of more than 100 µM.
